Values of other authors as cited in patent US20190328710A1, “SYNERGISTIC COMPOSITION FOR INHIBITING ADVANCED GLYCATION END PRODUCT CROSSLINKING” (H2 Water Technologies Ltd., priority 2018, published 2019).

Tested on: patients with cataracts
Settings: 96-patient trial, 6-month trial period

## NCCC(=O)N[C@@H](Cc1cnc[nH]1)C(=O)O [L-Carnosine]
Advanced senile cataracts
  success rate in advanced senile cataracts: 80%
Mild to moderate cataracts
  success rate in patients with mild to moderate cataracts: 100%
